Reference: patent US20240299290A1, “METHODS AND COMPOSITIONS FOR RAPID DELIVERY OF ANTI-SEIZURE THERAPEUTICS” (Neurelis, Inc., priority 2021, published 2024)
Where “and” joins values, the source holds several entries; their conditions need not be identical. Identical values can stand only once. Entries after “also recorded” stand apart in the source; their conditions may differ. Like-named read-outs stand apart in the source and are kept apart here.

Tests used:
[1] = Safety results of the PK profile crossover study
seizure = assay: Rapid onset of therapeutic effect: seizure cessation measured by EEG after intranasal diazepam; settings: for Time to Seizure Cessation: dosed during seizure, individual subjects
[2] = not given; remark: listed apart in the source
[3] = test system: seizure activity (beta frequency by EEG); assay: Change in beta frequency by EEG; settings: intranasal 20 mg via intranasal composition
[4] = safety population, 163 subjects
[5] = 24 subjects, all three diazepam treatments

Q: With `CN1C(=O)CN=C(c2ccccc2)c2cc(Cl)ccc21` [diazepam, 7-chloro-1,3-dihydro-1-methyl-5-phenyl-2H-1,4-benzodiazepin-2-one] as the compound, how does the respiratory depression (163 subjects) read?
A: no incidents

Q: What about the “Treatment-related AE: epistaxis, dysgeusia, somnolence (each)” value [4] of the same compound?
A: 3 subjects

Q: What about the “Treatment-related AE: headache” value [4] of the same compound?
A: 4 subjects

Q: And the “Treatment-related AE: nasal discomfort” value [4]?
A: 10 subjects

Q: And the “each of the 14 single-subject treatment-related AEs (nasal mucosal disorder to rash)” value [4]?
A: 0.6%

Q: What about the “subjects with at least one AE” value [4] of the same compound?
A: 134 subjects

Q: What about the “subjects with at least one AE/TEAE” value [4] of the same compound?
A: 82.2%

Q: What about the “subjects with treatment-related AEs” value [4] of the same compound?
A: 30 subjects

Q: And the “subjects with treatment-related AEs/TEAEs” value [4]?
A: 18.4%

Q: And the “treatment-related AEs that were serious” value [4]?
A: None

Q: What about the overall safety conclusion (subjects with epilepsy, intranasal) of the same compound?
A: safe and well tolerated; also recorded: good safety profile

Q: And the “AE: epistaxis” value [1, 5]?
A: 7 subjects

Q: And the “AE: somnolence” value [1, 5]?
A: 6 subjects

Q: What about the “AE: somnolence” value ([1]; each of the intranasal dosages (suspension, solution)) of the same compound?
A: 1 subject

Q: And the reports of epistaxis ([1]; intranasal)?
A: 3 events

Q: What about the tolerability ([1]; intranasal suspension and solution, 10 mg) of the same compound?
A: well-tolerated

Q: What about the “Time to Seizure Cessation” value (seizure; 10 mg intranasal) of the same compound?
A: 1 min and <1 min (2×)

Q: And the “Time to Seizure Cessation” value (seizure; 15 mg intranasal)?
A: <1 min (6×) and 1 min (2×)

Q: What about the “Time to Seizure Cessation” value (seizure; 20 mg intranasal) of the same compound?
A: <1 min (12×) and 1 min

Q: And the “Cessation of the seizure, as measured by EEG” value (seizure; 10, 15 or 20 mg intranasal during active seizure, all but one of the subjects)?
A: ≤ 1 min

Q: What about the “subsequent seizure during the period of observation” value (seizure; intranasal, dosed after seizure had ended) of the same compound?
A: no subsequent seizure was experienced by any of the subjects

Q: And the “TEAE: seizure, nasopharyngitis, nasal discomfort (each)” value ([2]; 2 of 57 subjects each)?
A: 3.5%

Q: What about the “TEAE: dysgeusia” value ([2]; 3 of 57 subjects) of the same compound?
A: 5.3%

Q: And the “PK profile in seizure versus non-seizure state” value ([2]; 5-20 mg intranasal, subjects with epilepsy, any age group or dose)?
A: not notably altered

Q: And the “subjects with treatment-related AEs” value ([2]; 8 of 57 subjects)?
A: 14.0%

Q: What about the “subjects with at least one AE” value ([2]; 17 out of 57 subjects) of the same compound?
A: 29.8%

Q: And the suicidal ideation post-dosing ([2]; 57 subjects)?
A: No subjects

Q: What about the “time to changes in beta frequency (EEG)” value [3] of the same compound?
A: ≤ 6 min
